# Test results as given in PubChem BioAssay AID2060491 (Molecular Pharmacology Branch, DTP, NCI, 2025).
# pIC50: −log10 of the molar value.
# Test system: 857933-349-R-J2-PDC complex spheroids, viability
# Experiment: Anticancer human tumor 857933-349-R-J2-PDC patient-derived colon adenocarcinoma cell line growth inhibition [GQUAD]
# Conditions: for pIC50: curve of first compound; for viability, T/C: stronger effect = lower value
# Procedure, shortened: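 Multi-cell-type spheroids of tumor cells with HUVEC and mesenchymal stem cells, treated with drug combinations. Concentrations descend in half-log steps from near clinical Cmax, or from 10 microM where Cmax is unknown; viability read-out.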
# [1] = second compound 0.0316 µM, first compound 0.0316 µM
# [2] = second compound 0.0316 µM, first compound 0.1 µM
# [3] = second compound 0.0316 µM, first compound 0.316 µM
# [4] = second compound 0.0316 µM, first compound 1 µM
# [5] = second compound 0.0316 µM, first compound 3.16 µM
# [6] = second compound 0.0316 µM, first compound 10 µM
# [7] = second compound 0.1 µM, first compound 0.0316 µM
# [8] = second compound 0.1 µM, first compound 0.1 µM
# [9] = second compound 0.1 µM, first compound 0.316 µM
# [10] = second compound 0.1 µM, first compound 1 µM
# [11] = second compound 0.1 µM, first compound 3.16 µM
# [12] = second compound 0.1 µM, first compound 10 µM
# [13] = second compound 0.316 µM, first compound 0.0316 µM
# [14] = second compound 0.316 µM, first compound 0.1 µM
# [15] = second compound 0.316 µM, first compound 0.316 µM
# [16] = second compound 0.316 µM, first compound 1 µM
# [17] = second compound 0.316 µM, first compound 3.16 µM
# [18] = second compound 0.316 µM, first compound 10 µM
# [19] = second compound 1 µM, first compound 0.0316 µM
# [20] = second compound 1 µM, first compound 0.1 µM
# [21] = second compound 1 µM, first compound 0.316 µM
# [22] = second compound 1 µM, first compound 1 µM
# [23] = second compound 1 µM, first compound 3.16 µM
# [24] = second compound 1 µM, first compound 10 µM
# [25] = second compound 3.16 µM, first compound 0.0316 µM
# [26] = second compound 3.16 µM, first compound 0.1 µM
# [27] = second compound 3.16 µM, first compound 0.316 µM
# [28] = second compound 3.16 µM, first compound 1 µM
# [29] = second compound 3.16 µM, first compound 3.16 µM
# [30] = second compound 3.16 µM, first compound 10 µM
# [31] = second compound 10 µM, first compound 0.0316 µM
# [32] = second compound 10 µM, first compound 0.1 µM
# [33] = second compound 10 µM, first compound 0.316 µM
# [34] = second compound 10 µM, first compound 1 µM
# [35] = second compound 10 µM, first compound 3.16 µM
# [36] = second compound 10 µM, first compound 10 µM
# 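Also: spheroids exposed to compounds for one week before readout.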
# 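For viability, T/C in this document: percent viability relative to vehicle DMSO wells taken as 100%.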
smiles,measurement,setting,value
COc1ncnc(C2CC2)c1-c1ncc2cnn(Cc3ccc(-c4nc(C(F)(F)F)cn4C(C)C)cc3)c2n1 + CN(C)c1ccc(Nc2c3ccc(NC(=O)CCN4CCCC4)cc3nc3cc(NC(=O)CCN4CCCC4)ccc23)cc1,pIC50,second compound 0.0316 µM,< 5.00
same,pIC50,second compound 0.1 µM,< 5.00
same,pIC50,second compound 0.316 µM,< 5.00
same,pIC50,second compound 1 µM,< 5.00
same,pIC50,second compound 3.16 µM,< 5.00
same,pIC50,second compound 10 µM,< 5.00
same,"viability, T/C",[1],106%
same,"viability, T/C",[2],99.8%
same,"viability, T/C",[3],102%
same,"viability, T/C",[4],101%
same,"viability, T/C",[5],104%
same,"viability, T/C",[6],104%
same,"viability, T/C",[7],99.9%
same,"viability, T/C",[8],103%
same,"viability, T/C",[9],102%
same,"viability, T/C",[10],101%
same,"viability, T/C",[11],105%
same,"viability, T/C",[12],109%
same,"viability, T/C",[13],104%
same,"viability, T/C",[14],104%
same,"viability, T/C",[15],97.3%
same,"viability, T/C",[16],90.8%
same,"viability, T/C",[17],104%
same,"viability, T/C",[18],99.2%
same,"viability, T/C",[19],97.7%
same,"viability, T/C",[20],88.5%
same,"viability, T/C",[21],94.6%
same,"viability, T/C",[22],92.7%
same,"viability, T/C",[23],90.7%
same,"viability, T/C",[24],87.6%
same,"viability, T/C",[25],83.9%
same,"viability, T/C",[26],77.7%
same,"viability, T/C",[27],82.5%
same,"viability, T/C",[28],74.2%
same,"viability, T/C",[29],79.6%
same,"viability, T/C",[30],67.3%
same,"viability, T/C",[31],64.6%
same,"viability, T/C",[32],63.1%
same,"viability, T/C",[33],66.2%
same,"viability, T/C",[34],61.6%
same,"viability, T/C",[35],56.5%
same,"viability, T/C",[36],52.2%
COc1ncnc(C2CC2)c1-c1ncc2cnn(Cc3ccc(-c4nc(C(F)(F)F)cn4C(C)C)cc3)c2n1 + Cc1cnc(CNC(=O)c2c(=O)c3ccc(N4CCCN(C)CC4)nc3n3c2sc2ccccc23)cn1,pIC50,second compound 0.0316 µM,< 5.00
same,pIC50,second compound 0.1 µM,< 5.00
same,pIC50,second compound 0.316 µM,> 7.50
same,pIC50,second compound 1 µM,> 7.50
same,pIC50,second compound 3.16 µM,> 7.50
same,pIC50,second compound 10 µM,> 7.50
same,"viability, T/C",[1],108%
same,"viability, T/C",[2],80.5%
same,"viability, T/C",[3],85.4%
same,"viability, T/C",[4],81.6%
same,"viability, T/C",[5],85.1%
same,"viability, T/C",[6],86%
same,"viability, T/C",[7],55.2%
same,"viability, T/C",[8],58.1%
same,"viability, T/C",[9],50%
same,"viability, T/C",[10],64.1%
same,"viability, T/C",[11],67.2%
same,"viability, T/C",[12],70%
same,"viability, T/C",[13],19.1%
same,"viability, T/C",[14],19.9%
same,"viability, T/C",[15],17.7%
same,"viability, T/C",[16],22.1%
same,"viability, T/C",[17],23.2%
same,"viability, T/C",[18],18.1%
same,"viability, T/C",[19],3.57%
same,"viability, T/C",[20],3.77%
same,"viability, T/C",[21],3.91%
same,"viability, T/C",[22],3.85%
same,"viability, T/C",[23],4.62%
same,"viability, T/C",[24],7.3%
same,"viability, T/C",[25],2.42%
same,"viability, T/C",[26],2.35%
same,"viability, T/C",[27],2.33%
same,"viability, T/C",[28],2.58%
same,"viability, T/C",[29],3.1%
same,"viability, T/C",[30],2.88%
same,"viability, T/C",[31],0.21%
same,"viability, T/C",[32],0.29%
same,"viability, T/C",[33],0.4%
same,"viability, T/C",[34],0.43%
same,"viability, T/C",[35],0.91%
same,"viability, T/C",[36],0.42%
CC(C)(O)C1CCC(Nc2ccc3ncc(-c4cccc(C(F)(F)F)c4)n3n2)CC1 (stereo unspecified) + CN(C)c1ccc(Nc2c3ccc(NC(=O)CCN4CCCC4)cc3nc3cc(NC(=O)CCN4CCCC4)ccc23)cc1,pIC50,second compound 0.0316 µM,6.10
same,pIC50,second compound 0.1 µM,6.14
same,pIC50,second compound 0.316 µM,6.16
same,pIC50,second compound 1 µM,6.16
same,pIC50,second compound 3.16 µM,6.22
same,pIC50,second compound 10 µM,6.34
same,"viability, T/C",[1],117%
same,"viability, T/C",[2],98.4%
same,"viability, T/C",[3],97.5%
same,"viability, T/C",[4],39.1%
same,"viability, T/C",[5],2.79%
same,"viability, T/C",[6],2.75%
same,"viability, T/C",[7],102%
same,"viability, T/C",[8],94%
same,"viability, T/C",[9],89.3%
same,"viability, T/C",[10],35.6%
same,"viability, T/C",[11],2.84%
same,"viability, T/C",[12],2.87%
same,"viability, T/C",[13],99%
same,"viability, T/C",[14],94.3%
same,"viability, T/C",[15],87.2%
same,"viability, T/C",[16],32.6%
same,"viability, T/C",[17],3.05%
same,"viability, T/C",[18],3.1%
same,"viability, T/C",[19],94%
same,"viability, T/C",[20],83.2%
same,"viability, T/C",[21],83.3%
same,"viability, T/C",[22],33.8%
same,"viability, T/C",[23],3.77%
same,"viability, T/C",[24],3.15%
same,"viability, T/C",[25],78.9%
same,"viability, T/C",[26],75.5%
same,"viability, T/C",[27],74.2%
same,"viability, T/C",[28],30.4%
same,"viability, T/C",[29],7.32%
same,"viability, T/C",[30],5.21%
same,"viability, T/C",[31],62.9%
same,"viability, T/C",[32],66.4%
same,"viability, T/C",[33],59.4%
same,"viability, T/C",[34],30.1%
same,"viability, T/C",[35],15.3%
same,"viability, T/C",[36],9.67%
